Here are results for four compounds from ChEMBL document CHEMBL1201862, “PubChem BioAssay data set” (2004).

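Five compound concentrations were applied to cells in 96-well plates for 48 hours; endpoints were derived by simple linear interpolation of the resulting dose-response curve. At the GI50, growth is halved.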 Active and inactive are the calls of the source. Cut-off read from the data, not from the text of the source: active = GI50 up to about 1.1 µM and inactive = higher.

Among the test systems are U-251; PC-3; RPMI-8226; SK-MEL-28; NCI-H460; SK-MEL-2; NCI-H23; UO-31; HL-60; M14; HCT-116; SN12C; CCRF-CEM; HCT-15; BT-549; HCC 2998; OVCAR-5; HOP-62; MDA-MB-231; T47D.
Common to all, as to experiment: inhibition of tumour cell growth, NCI panel, 48 h

As to `CC[C@@]1(O)C(=O)OCc2c1cc1n(c2=O)Cc2c-1nc1ccccc1c2Cl`, the GI50 is < 0.01 µM (active) in the test on U-251; < 0.0214 µM (active) in the test on PC-3; < 0.0151 µM (active) in the test with RPMI-8226; 0.204 µM (active) in the test on SK-MEL-28; < 0.01 µM (active) in the test on NCI-H460; 0.396 µM (active) in the test on SK-MEL-2. Besides, the GI50 is < 0.01 µM (active) in the test on NCI-H23; < 0.01 µM (active) in the test on UO-31; < 0.01 µM (active) in the test with HL-60; < 0.0133 µM (active) in the test with M14; 0.0168 µM (active) in the test on HCT-116; < 0.01 µM (active) in the test on SN12C. The GI50 is < 0.01 µM (active) in the test with CCRF-CEM; 0.267 µM in the test with HCT-15; < 0.0136 µM (active) in the test with BT-549; 0.521 µM (active) in the test with HCC 2998; 0.0811 µM (active) in the test on OVCAR-5; < 0.01 µM (active) in the test with HOP-62. Further, the values for the GI50 in the test with MDA-MB-231 and with T47D were 8.32 µM (inactive) and < 0.01 µM (active), respectively.
For `CN(CCN(C)Cc1ccc(Cl)c(Cl)c1)CCN1CCCC1`, the GI50 was 21.3 µM (inactive) in the test with U-251; 32.5 µM (inactive) in the test with PC-3; 7.71 µM (inactive) in the test on RPMI-8226; 6.78 µM (inactive) in the test on SK-MEL-28; 27.5 µM (inactive) in the test with NCI-H460; 24.2 µM (inactive) in the test on SK-MEL-2. Also, the GI50 in the test on NCI-H23 was 42.1 µM (inactive); with UO-31, 11.6 µM (inactive); in the test with HL-60, 17.5 µM (inactive); in the test with M14, 23.2 µM (inactive); in the test with HCT-116, 13.1 µM (inactive); in the test with SN12C, > 48 µM (inactive). In addition, the GI50 with CCRF-CEM was 3.72 µM (inactive); with HCT-15, 37.2 µM; with BT-549 it was 65.6 µM (inactive); with HCC 2998, 14.5 µM (inactive); in the test with OVCAR-5, 39.3 µM (inactive); in the test with HOP-62, 22.1 µM (inactive). For the same compound, the results for the GI50 in the test with MDA-MB-231 and in the test with T47D were 18.8 µM (inactive) and 57.9 µM (inactive), respectively.
For `CN(NC(=O)CCCl)C1=NCCN1`, the GI50 with U-251, with PC-3, in the test with RPMI-8226, in the test on SK-MEL-28, in the test on NCI-H460 and in the test with SK-MEL-2 was > 100 µM (inactive) throughout. Moreover, the GI50 in the test on NCI-H23, in the test on UO-31, in the test on HL-60, in the test with M14, with HCT-116 and in the test with SN12C was > 100 µM (inactive) in each case. Also, the GI50 with CCRF-CEM was > 100 µM (inactive); with HCT-15, over 100 µM; with BT-549, > 100 µM (inactive); with HCC 2998, > 100 µM (inactive); in the test on OVCAR-5, > 100 µM (inactive); with HOP-62, > 100 µM (inactive). The GI50 with MDA-MB-231 and in the test with T47D was > 100 µM (inactive) each time.
As for `CN(C)CCNC(=O)Cn1ccc(=O)c2c([N+](=O)[O-])cccc21`, the GI50 with U-251, in the test on PC-3, in the test on RPMI-8226, in the test with SK-MEL-28, in the test with NCI-H460 and with SK-MEL-2 was > 100 µM (inactive) throughout. The GI50 in the test on NCI-H23, in the test with UO-31, in the test with HL-60, with M14, in the test on HCT-116 and in the test with SN12C was > 100 µM (inactive) throughout. Besides, the GI50 was > 100 µM (inactive) in the test with CCRF-CEM; over 100 µM in the test on HCT-15; > 100 µM (inactive) with BT-549; > 100 µM (inactive) in the test with HCC 2998; > 100 µM (inactive) in the test with OVCAR-5; > 100 µM (inactive) with HOP-62. For the same compound, the GI50 in the test with MDA-MB-231 and in the test on T47D was > 100 µM (inactive) each time.
